Test [1] has as its target T1, Type-1 angiotensin II receptor (Bos taurus, UniProt P25104).
T1 sequence (P25104 whole entry): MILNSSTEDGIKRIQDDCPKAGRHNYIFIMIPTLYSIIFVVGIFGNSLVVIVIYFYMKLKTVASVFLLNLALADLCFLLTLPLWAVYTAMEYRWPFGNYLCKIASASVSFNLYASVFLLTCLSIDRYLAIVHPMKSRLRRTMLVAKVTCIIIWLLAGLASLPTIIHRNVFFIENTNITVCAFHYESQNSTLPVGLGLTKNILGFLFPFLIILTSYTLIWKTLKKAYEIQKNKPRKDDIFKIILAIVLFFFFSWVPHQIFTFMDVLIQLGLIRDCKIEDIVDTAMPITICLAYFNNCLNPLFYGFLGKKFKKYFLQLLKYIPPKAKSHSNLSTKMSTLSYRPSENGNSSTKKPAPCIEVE
Description: In vitro binding affinity to angiotensin II receptor in bovine adrenal cortex. The test is classed as tissue-based.

Test [2] can be described thus: Percent blockade of the vasopressor response to A II (0.05 ug/kg i.v.) at a dose of 5 mg/kg p.o. in A II challenge model. The class given is functional. Conditions: route oral.
For the next test, the system named is Rattus norvegicus. Description: Decrease in Mean Arterial Blood Pressure(MABP) in Aorta […] rat model at a dose of 3 mg/kg p.o. The class given is functional. Conditions: route oral.
Test [3] in a line: Percent blockade of the vasopressor response to A II (0.05 ug/kg i.v.) at a dose of 5 mg/kg p.o. in A II challenge model. The class given is functional. Conditions: route oral.

By IC50 is commonly meant the concentration that gives 50% inhibition. A low value points to higher potency. For `CCCCc1nc2ccc([C@H]3[C@@H]4C(=O)OC[C@@H]4ON3Cc3ccccc3)cc2c(=O)n1Cc1ccc(-c2ccccc2-c2nnn[nH]2)cc1`, the IC50 in test [1] was 177 nM.

With `CCCCc1nc2ccc([C@@H]3C[C@H]4C5CCC(C)(C)N5O[C@H]4O3)cc2c(=O)n1Cc1ccc(-c2ccccc2-c2nn[nH]n2)cc1` (stereo partly specified), the IC50 in test [1] is 32 nM. As to `CCCCc1nc2ccc([C@H]3[C@@H]4C(=O)CC[C@@H]4ON3C)cc2c(=O)n1Cc1ccc(-c2ccccc2-c2nnn[nH]2)cc1`, the IC50 in test [1] amounted to 98 nM. In test [1], `CCCCc1nc2ccc([C@@H]3[C@@H]4C(=O)OC[C@@H]4ON3Cc3ccccc3)cc2c(=O)n1Cc1ccc(-c2ccccc2-c2nn[nH]n2)cc1` displayed a half-maximal inhibitory concentration (IC50) of 94 nM. Take `CCCCc1nc2ccc([C@H]3[C@@H]4CCC[C@@H]4ON3C)cc2c(=O)n1Cc1ccc(-c2ccccc2-c2nnn[nH]2)cc1`: in test [1], the IC50 was 98 nM. Take `CCCCc1nc2ccc([C@H]3C[C@H](CO)ON3C)cc2c(=O)n1Cc1ccc(-c2ccccc2-c2nnn[nH]2)cc1`: the IC50 in test [1] amounted to 43 nM. In the case of `CCCCc1nc2ccc([C@H]3OC[C@H]4[C@@H]3ON3[C@@H]4CCC3(C)C)cc2c(=O)n1Cc1ccc(-c2ccccc2-c2nnn[nH]2)cc1`, the IC50 in test [1] was found to be 53 nM. This IC50 and that of the compound before are within 1.5-fold of each other. Take `CCCCc1nc2ccc([C@H]3C4CCCCCCC4ON3C)cc2c(=O)n1Cc1ccc(-c2ccccc2-c2nn[nH]n2)cc1` (stereo partly specified): the IC50 in test [1] stood at 180 nM. For `CCCCc1nc2ccc([C@@H]3[C@@H]4C(=O)CC[C@@H]4ON3C)cc2c(=O)n1Cc1ccc(-c2ccccc2-c2nn[nH]n2)cc1`, the IC50 in test [1] was determined as 42 nM. The Activity in test [2] stood at 95%. For `CCCCc1nc2ccc([C@H]3C4CCCC4ON3C)cc2c(=O)n1Cc1ccc(-c2ccccc2-c2nn[nH]n2)cc1` (stereo partly specified), in test [1], the IC50 is 154 nM.

With `CCCCc1nc2ccc([C@H]3OC[C@@H]4ON5[C@@H](CCC5(C)C)[C@@H]43)cc2c(=O)n1Cc1ccc(-c2ccccc2-c2nn[nH]n2)cc1`, the MABP in the test with Rattus norvegicus is 45 mmHg. For the same compound, the concentration for half-maximal inhibition (IC50) in test [1] turned out to be 38 nM. Turning to `CCCCc1nc2ccc(C3CCC4CCCCC4O3)cc2c(=O)n1Cc1ccc(-c2ccccc2-c2nn[nH]n2)cc1` (stereo unspecified), the MABP in the test with Rattus norvegicus is 15 mmHg. On to `CCCCc1nc2ccc([C@@H]3C[C@H]4C(c5ccc(C)cc5)=NO[C@H]4O3)cc2c(=O)n1Cc1ccc(-c2ccccc2-c2nnn[nH]2)cc1`, for which, in test [1], the IC50 was 105 nM. Compound `CCCCc1nc2ccc([C@H]3[C@@H]4C(=O)OC[C@@H]4ON3C)cc2c(=O)n1Cc1ccc(-c2ccccc2-c2nn[nH]n2)cc1` showed an MABP in the test with Rattus norvegicus of 60 mmHg. In test [3], this compound had an Activity of 95%. Moreover, the IC50 in test [1] is 68 nM. `CCCCc1nc2ccc([C@@H]3C[C@H](CO)ON3C)cc2c(=O)n1Cc1ccc(-c2ccccc2-c2nn[nH]n2)cc1` gave an IC50 in test [1] of 61 nM. Still for that read-out and setting: the same measure for `CCCCc1nc2ccc([C@H]3[C@@H]4C(=O)CC[C@@H]4ON3Cc3ccccc3)cc2c(=O)n1Cc1ccc(-c2ccccc2-c2nnn[nH]2)cc1`: 79 nM; for `CCCCc1nc2ccc([C@@H]3C[C@H]4C(c5ccccc5)=NO[C@H]4O3)cc2c(=O)n1Cc1ccc(-c2ccccc2-c2nn[nH]n2)cc1`: 76 nM. As to `CCCCc1nc2ccc([C@@H]3[C@@H]4C(=O)OC[C@@H]4ON3C)cc2c(=O)n1Cc1ccc(-c2ccccc2-c2nnn[nH]2)cc1`, in test [1], the IC50 amounted to 150 nM.

As to `CCCCc1nc2ccc([C@@H]3[C@H]4CCCN3OC4)cc2c(=O)n1Cc1ccc(-c2ccccc2-c2nnn[nH]2)cc1`, the IC50 in test [1] was 16 nM. This IC50 lies about 9.4-fold lower than the previous one. In test [1], `CCCCc1nc2ccc(C3=NN[C@H]4C(=O)N(C)C(=O)[C@@H]34)cc2c(=O)n1Cc1ccc(-c2ccccc2-c2nn[nH]n2)cc1` displayed an IC50 of 110 nM. For `CCCCc1nc2ccc([C@@H]3C[C@H]4CCCCN3O4)cc2c(=O)n1Cc1ccc(-c2ccccc2-c2nnn[nH]2)cc1`, the IC50 in test [1] came to 42 nM. `CCCCc1nc2ccc([C@H]3[C@@H]4C(=O)CCC[C@@H]4ON3C)cc2c(=O)n1Cc1ccc(-c2ccccc2-c2nn[nH]n2)cc1` displayed an IC50 in test [1] of 900 nM.

The record behind these values is ChEMBL document CHEMBL1151584, “6-Substituted Quinazolinone Angiotensin II Receptor Antagonists” (Bioorg Med Chem Lett, 1994).
